Reference: patent US10927070B2, “Compositions and methods for treating cancer” (Cedars-Sinai Medical Center, priority 2016, dated 2021)
“Also recorded” adds a separate entry of the source.

Key:
[1] = test system: human prostate cancer cell lines; test: Growth, apoptosis and IC50 across prostate cell lines versus OC2 expression; format: cell-based; settings: PC cell lines that express medium to high levels of OC2
Procedure: (§1) ACTB and GAPDH expression levels were used for normalization. […] Cells were seeded in 96-well plates at 500 cells per well in a total volume of 100 ul media containing 10% FBS. Serially diluted compound CSRM617 was added to the cells 24 h later. After 48 h incubation, cell viability was assessed by Cell-Titer GLO (Promega). The values were normalized and IC50 was calculated using GraphPad Prism software. […] RWPE-1 is a benign prostate cell line.
(§2) To assess whether OC2 might be inhibited with a small molecule, we developed a structural model of OC2 binding to DNA using homology modeling, and conducted a virtual screen of a chemical library consisting of […] compounds. 15 compounds were selected for biological activity testing using in vitro assays. One compound, compound CSRM617, was deemed to be biologically active and was selected for further study. […] To evaluate the selectivity of Compound CSRM617 for genes regulated by OC2, we generated gene expression microarray data from 22Rv1 cells treated with Compound CSRM617 for 4, 6 and 16 h. […] As described above, we identified PEG10 as a gene directly regulated by OC2 binding to the PEG10 promoter. […] The OC2 HOX fragment bound with high affinity (Kd=1 nM) to a DNA probe corresponding to the experimentally determined OC2 binding motif in the PEG10 promoter (FIG. 25A, right panel).

[2] = test system: 22RV1 prostate cancer cells; test: Apoptosis induction by cleaved Caspase-3 and PARP in 22RV1; format: cell-based, human
From the text: GAPDH served as a loading control.

[3] = test system: C4-2; test: Cell-Titer GLO viability / proliferation in C4-2; format: cell-based, human
Procedure: as §1

[4] = test system: PEG10 protein; test: PEG10 protein by IHC and digital imaging in tumors of treated mice; format: in vivo; settings: adrenal gland tumors; IHC
Procedure: (§3) To determine whether Compound CSRM617 is effective against CRPC metastases, 22Rv1 cells were injected intracardially in SCID mice, and the animals were subsequently treated with the above dose of the compound for several weeks. […] To test for evidence of bioactivity of Compound CSRM617 in situ, PEG10 protein levels were measured using IHC followed by digital imaging in adrenal gland tumors.

[5] = test system: 22Rv1 metastases; test: 22Rv1 intracardiac injection metastasis model; format: in vivo, SCID mice; settings: 50 mg/kg daily; 4 w after intracardiac injection
Procedure: FIG. 15 depicts in accordance with various embodiments of the invention, Compound CSRM617 inhibits metastasis. 22Rv1-luciferase labeled cells were injected intracardially and mice were randomized (n=7 per group) to receive vehicle or 50 mg/kg^−1 CSRM617, daily. BLI images of mice bearing metastatic tumors 4 w after the injection (left) and graphical representation of normalized BLI signals (right). Mean±SD (n=7 per group) is shown; **P<0.01.
as §3

[6] = biological target: T1, purified recombinant OC2 HOX domain (Homo sapiens, UniProt O95948); test: Surface plasmon resonance (SPR) binding of compound to immobilized OC2-HOX domain
T1 construct: made in house
T1 sequence (O95948 426-485 limits assumed): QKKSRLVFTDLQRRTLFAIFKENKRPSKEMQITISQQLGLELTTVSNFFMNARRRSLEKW
Procedure: FIG. 13 depicts in accordance with various embodiments of the invention, Compound CSRM617 binds to ONECUT2 in a dose-dependent manner. To measure binding features of CSRM617, the OC2-HOX domain was recombinantly produced. Purified OC2-HOX binding domain was next immobilized on a HisCap sensor chip and CSRM617 was analyzed at serial doubling concentrations maximized at 100 μM.
FIG. 25A-FIG. 25C depict in accordance with various embodiments of the invention, FIG. 25A: (Left panel) representative sensorgram showing dose-dependent OC2-Compound CSRM617 interaction measured by surface plasmon resonance (SPR). Real-time binding was quantified by immobilizing biotinylated OC2 protein on the streptavidin biosensor with varying concentrations of Compound CSRM617 1.56-100 μm). (Right panel) OC2 binding to the experimentally determined OC2 binding site on the PEG10 promoter assayed by SPR. FIG. 25B: suppression of PEG10 protein expression in 22Rv1 tumors. FIG. 25C: suppression of PEG10 protein expression in 22Rv1 tumors.
as §2

[7] = test system: PEG10 mRNA; test: PEG10 mRNA expression in 22Rv1 (microarray); format: cell-based, human; settings: 10 μM, 4, 6 and 16 h
Procedure: FIG. 16A-FIG. 16C depict in accordance with various embodiments of the invention, that OC2 activates PEG10, a driver of transdifferentiation from adenocarcinoma to neuroendocrine cancer. […] FIG. 16C: we have generated gene expression microarray data from 22Rv1 cells treated with the compound at a concentration of 10 μM for 4, 6 and 16 h. […] By inhibiting OC2 with compound CSRM617 the expression levels of the NE driver PEG10 are reduced.
as §2

[8] = Tolerability in treated mice (body weight, feeding, behavior); format: in vivo; settings: 50 mg/Kg/d
Procedure: as §3

[9] = test system: 22Rv1 xenografts; test: Subcutaneous 22Rv1 xenograft growth in mice; format: in vivo; settings: established 22Rv1 xenografts; 50 mg/Kg/d; 50 mg/kg/day
[10] = test system: OC2 target genes; test: Gene expression microarray and GSEA of OC2 target genes in 22Rv1; format: cell-based, human; settings: 10 μM, 4, 6 and 16 h
Procedure: FIG. 14A-FIG. 14E depict in accordance with various embodiments of the invention, Compound CSRM617 perturbs OC2-regulated genes and suppresses 22Rv1 tumor growth in mice. To evaluate the specificity of CSRM617 for genes regulated by OC2, we generated gene expression microarray data from 22Rv1 cells treated with the compound at a concentration of 10 μM for 4, 6 and 16 h.
as §2

[11] = test system: 22RV1; test: Cell-Titer GLO viability / proliferation in 22RV1; format: cell-based, human
Procedure: as §1

[12] = test system: LNCaP; test: Cell proliferation in vitro in LNCaP; format: cell-based, human
Procedure: as §1

[13] = Solubility relative to CSRM617; format: physicochemical
[14] = test system: 22Rv1 cells; test: CellTiter-Glo cell viability of CSRM617 derivatives in 22Rv1; format: cell-based, human; settings: for potency (IC50) compared with compound CSRM617: 100 μM to 0.2 μM, 48 hours; for cell viability: 48 hours post treatment, CellTiter-Glo
Procedure: FIG. 17A: 22Rv1 cells were plated at a density of 1000 cells per well, in triplicate, in a 96 well plate. The next day cells were exposed to compound CSRM617, several derivatives or vehicle (1% DMSO) at a concentration of 25 μM. Viability was measured 48 hours post treatment using CellTiter-Glo Luminescent Cell Viability Assay (Promega). FIG. 17B: 22Rv1 cells were plated at a density of 1000 cells per well, in triplicate, in a 96 well plate. The next day, TO reading was collected and cells were exposed to compound CSRM617, the derivatives or vehicle (1% DMSO) at 2-fold concentration ranging from 100 μM to 0.2 μM. Viability was measured 48 hours post treatment using CellTiter-Glo Luminescent Cell Viability Assay (Promega).

SMILES | direct binding to OC2 [6] | solubility compared with compound CSRM617 [13] | potency (IC50) compared with compound CSRM617 [14] | cell viability [14] | other results
N[C@@H](CO)C(=O)N/N=C/c1ccc(O)c(O)c1O [CSRM617] | binds directly to OC2 | – | – | – | apoptosis [1]: induced apoptosis; cell growth [1]: inhibited cell growth; apoptosis (cleaved Caspase-3 and PARP) [2]: induces apoptosis; cell proliferation in vitro [3]: inhibited cell proliferation; sensitivity (IC50) to compound ([3]; 48 h incubation): highest sensitivity; PEG10 protein levels in tumors [4]: significantly down-regulated; onset and growth of diffuse metastases (BLI) [5]: reduces significantly the onset and growth of diffuse metastases; also recorded: inhibited onset and growth of diffuse metastases; Kd ([6]; SPR, serial doubling concentrations up to 100 μM): 7.43 µM; PEG10 mRNA expression [7]: downregulated in a time-dependent manner; body weight [8]: did not affect body weight; feeding patterns or behavior [8]: did not affect; subcutaneous tumor growth [9]: reduces tumor growth; also recorded: inhibited subcutaneous growth; perturbation of OC2 target genes (GSEA) [10]: significant perturbation of OC2 target genes; sensitivity (IC50) to compound ([11]; 22RV1, 48 h incubation): highest sensitivity; cell proliferation in vitro ([11]; 22Rv1): inhibited cell proliferation; cell proliferation in vitro [12]: inhibited cell proliferation
N[C@@H](CO)C(=O)NNCc1ccc(O)c(O)c1O [Compound 122] | directly bind OC2 | improved solubility | comparable activity | reduces cell viability | –
NC(=O)C1CCCCN1C(=O)NCCc1ccc(O)c(O)c1O (centres unmarked) [Compound 123] | directly bind OC2 | improved solubility | comparable activity | reduces cell viability | –
O=C(CNC(=O)Cc1ccc(O)c(O)c1O)NO [Compound 843] | directly bind OC2 | improved solubility | comparable activity | reduces cell viability | –
CC(=O)NCCC(=O)NCCc1ccc(O)c(O)c1O [Compound 844] | – | improved solubility | comparable activity | reduces cell viability | –
O=C1CCC(C(=O)NCCc2ccc(O)c(O)c2O)CN1 (centres unmarked) [Compound 848] | – | improved solubility | comparable activity | reduces cell viability | –
